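Grown in 96-well plates, cells were treated for 48 hours with each compound at five concentrations. Insufficient inhibition: endpoint recorded as highest concentration tested. At the GI50, growth is halved. TGI denotes the concentration required for complete inhibition of growth.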
Key:
Assay in all cases: NCI-60 cell line screen, 48 h
NCI-H226 lung = tested on: NCI-H226 lung
NCI-H23 lung = tested on: NCI-H23 lung
NCI-H460 lung = tested on: NCI-H460 lung
NCI-H522 lung = tested on: NCI-H522 lung
NCI/ADR-RES ovarian = tested on: NCI/ADR-RES ovarian
OVCAR-4 ovarian = tested on: OVCAR-4 ovarian
OVCAR-5 ovarian = tested on: OVCAR-5 ovarian
OVCAR-8 ovarian = tested on: OVCAR-8 ovarian
PC-3 prostate = tested on: PC-3 prostate
RPMI-8226 leukemia = tested on: RPMI-8226 leukemia
RXF 393 renal = tested on: RXF 393 renal
SF-268 CNS = tested on: SF-268 CNS
SF-295 CNS = tested on: SF-295 CNS
SF-539 CNS = tested on: SF-539 CNS
SK-MEL-28 melanoma = tested on: SK-MEL-28 melanoma
SK-MEL-5 melanoma = tested on: SK-MEL-5 melanoma
SK-OV-3 ovarian = tested on: SK-OV-3 ovarian
SN12C renal = tested on: SN12C renal
SNB-19 CNS = tested on: SNB-19 CNS
SW-620 colon = tested on: SW-620 colon
T-47D breast = tested on: T-47D breast
TK-10 renal = tested on: TK-10 renal
U251 CNS = tested on: U251 CNS
UACC-257 melanoma = tested on: UACC-257 melanoma
UO-31 renal = tested on: UO-31 renal

ClC(Cl)c1nc(-c2cccs2)n2nc(-c3ccccc3)cc2n1
GI50 (NCI-H226 lung): > 100000 nM
TGI (NCI-H226 lung): > 100000 nM
GI50 (NCI-H23 lung): 1470 nM
TGI (NCI-H23 lung): 4440 nM
GI50 (NCI-H460 lung): 299 nM
TGI (NCI-H460 lung): 974 nM
GI50 (NCI-H522 lung): > 100000 nM
TGI (NCI-H522 lung): > 100000 nM
GI50 (NCI/ADR-RES ovarian): 912 nM
TGI (NCI/ADR-RES ovarian): 4090 nM
GI50 (OVCAR-4 ovarian): 2020 nM
TGI (OVCAR-4 ovarian): 5060 nM
GI50 (OVCAR-5 ovarian): 1740 nM
TGI (OVCAR-5 ovarian): 5120 nM
GI50 (OVCAR-8 ovarian): 1150 nM
TGI (OVCAR-8 ovarian): > 100000 nM
GI50 (PC-3 prostate): 1180 nM
TGI (PC-3 prostate): 3750 nM
GI50 (RPMI-8226 leukemia): 472 nM
TGI (RPMI-8226 leukemia): 2560 nM
GI50 (RXF 393 renal): 477 nM
TGI (RXF 393 renal): 1690 nM
GI50 (SF-268 CNS): 1600 nM
TGI (SF-268 CNS): 5180 nM
GI50 (SF-295 CNS): 801 nM
TGI (SF-295 CNS): 3390 nM
GI50 (SF-539 CNS): 1100 nM
TGI (SF-539 CNS): 2940 nM
GI50 (SK-MEL-28 melanoma): 1690 nM
TGI (SK-MEL-28 melanoma): 3220 nM
GI50 (SK-MEL-5 melanoma): > 100000 nM
TGI (SK-MEL-5 melanoma): > 100000 nM
GI50 (SK-OV-3 ovarian): 1890 nM
TGI (SK-OV-3 ovarian): 6660 nM
GI50 (SN12C renal): > 100000 nM
TGI (SN12C renal): > 100000 nM
GI50 (SNB-19 CNS): 635 nM
TGI (SNB-19 CNS): 3710 nM
GI50 (SW-620 colon): 681 nM
TGI (SW-620 colon): 3490 nM
GI50 (T-47D breast): 1510 nM
TGI (T-47D breast): 5720 nM
GI50 (TK-10 renal): 3230 nM
TGI (TK-10 renal): 6250 nM
GI50 (U251 CNS): 326 nM
TGI (U251 CNS): 1820 nM
GI50 (UACC-257 melanoma): 2400 nM
TGI (UACC-257 melanoma): 5680 nM
GI50 (UO-31 renal): 1190 nM
TGI (UO-31 renal): 4520 nM
